According to paper PMC5941067, “Novel Xanthomonas campestris Long-Chain-Specific 3-Oxoacyl-Acyl Carrier Protein Reductase Involved in Diffusible Signal Factor Synthesis” (mBio, 2018):

Experiments:
FabG1 (XCC1018) = target: T1, FabG1 (XCC1018) (Xanthomonas campestris, UniProt Q8PBU9); experiment: NADPH absorbance decrease at […] nm; assay type: biochemical; conditions: hydride donor; 3-oxodecanoyl-ACP generated in situ by E. coli FabD and FabB from acyl-ACP and malonyl-CoA
T1 construct: gene fabG; full length, pET-28(b) construct (His tag), E. coli BL21(DE3)

[1] = target: T2, X. campestris pv. campestris FabH (Xanthomonas campestris, UniProt Q8PBV1); experiment: coupled reaction, MALDI-TOF MS of acyl-ACP products; assay type: biochemical; conditions: co-substrate malonyl-ACP; with FabG1 or FabG2 and E. coli FabA
T2 construct: purification and tag of this protein not described in the main text
T2 sequence (Q8PBV1 whole entry): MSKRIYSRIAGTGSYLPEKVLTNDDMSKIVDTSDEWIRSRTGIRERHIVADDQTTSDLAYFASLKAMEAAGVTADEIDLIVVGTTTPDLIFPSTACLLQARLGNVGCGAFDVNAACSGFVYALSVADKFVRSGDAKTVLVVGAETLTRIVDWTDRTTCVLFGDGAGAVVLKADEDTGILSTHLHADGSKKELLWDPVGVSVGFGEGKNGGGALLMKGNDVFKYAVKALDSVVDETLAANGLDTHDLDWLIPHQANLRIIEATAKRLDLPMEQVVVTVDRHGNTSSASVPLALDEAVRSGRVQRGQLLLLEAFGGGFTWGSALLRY

T1 sequence (Q8PBU9 entry or part of it): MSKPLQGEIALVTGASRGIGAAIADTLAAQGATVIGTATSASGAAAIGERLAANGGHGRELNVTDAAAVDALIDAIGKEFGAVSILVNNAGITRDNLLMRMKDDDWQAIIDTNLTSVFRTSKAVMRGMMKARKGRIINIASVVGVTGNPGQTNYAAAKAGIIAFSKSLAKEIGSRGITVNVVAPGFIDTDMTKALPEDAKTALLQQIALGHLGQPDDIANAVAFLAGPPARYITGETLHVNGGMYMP

Structure (SMILES) | NADPH absorbance decrease at 340 nm (FabG1 (XCC1018)) | coupled reaction, MALDI-TOF MS of acyl-ACP products [1]
NC(=O)C1=CN([C@@H]2O[C@H](COP(=O)(O)OP(=O)(O)OC[C@H]3O[C@@H](n4cnc5c(N)ncnc54)[C@H](OP(=O)(O)O)[C@@H]3O)[C@@H](O)[C@H]2O)C=CC1 [NADPH] | The maximal rate of NADPH reduction of 3-oxodecanoyl-ACP by FabG2 | 
CCCCCCCC(=O)SCCNC(=O)CCNC(=O)[C@H](O)C(C)(C)COP(=O)(O)OP(=O)(O)OC[C@H]1O[C@@H](n2cnc3c(N)ncnc32)[C@H](O)[C@@H]1OP(=O)(O)O [octanoyl-CoA] |  | X. campestris pv. campestris FabH, octanoyl-CoA, and malonyl-ACP replaced octanoyl-ACP
